Assay results taken from US20180298405A1, “METHODS AND COMPOSITIONS TO INCREASE HUMAN SOMATIC CELL NUCLEAR TRANSFER (SCNT) EFFICIENCY BY REMOVING HISTONE H3-LYSINE TRIMETHYLATION, AND DERIVATION OF HUMAN NT-ESC” (CHILDREN'S MEDICAL CENTER CORPORATION, priority 2015, published 2018).

Test system: reprogramming resistant regions (RRRs) / ZGA genes
Test: RNA-seq of late 8-cell human SCNT embryos with or without KDM4A mRNA injection (ZGA of RRRs, KDM4A-responsive genes)
Type: cell-based
Conditions: KDM4A SCNT 8-cell embryos
Text: A sliding window (size 20 kb, step size 10 kb) was used to assess the genome-wide expression level of 4-cell and 8-cell human embryos. For each window, the expression level was quantified with normalized RPM (reads per millions of uniquely mapped reads). […] These activated regions were classed into three groups based on their expression differences in human SCNT and IVF 8-cell embryos.
The SCNT embryos used for ZGA analysis were generated using oocytes donated by a single healthy person (#64) and dermal fibroblast cells from an AMD patient (DFB-8). SCNT and IVF embryos were cultured up to late 8-cell stage, when the compaction of blastomeres is initiated, then they were treated briefly with acid Tyrode solution to remove zona pellucida. To prepare for the 8-cell SCNT embryo, oocytes from a single oocyte donor, and skin fibroblast cells from a single somatic nuclear donor were used. All the procedures are the same as described in the “Human SCNT procedure and KMD4A mRNA injection” section. Only embryos that reached the late 8-cell stage synchronically 74 hours post activation were collected and used for this experiment.
For preparation of the control IVF embryos, several donated early 8-cell stage IVF embryos were thawed and cultured for 5-7 hours to allow them to reach late 8-cell stage before being processed. After removal of the zona pellucida, the denuded embryos were washed 3 times in PBS, loaded into RNAse and DNAse free PCR tubes, spin downed, and snap frozen in liquid nitrogen. Then, they were kept at −80° C. until use. As controls, dermal fibroblast cells of somatic nuclear donors were also prepared. Those fibroblast cells were cultured in a 25 cm^2 flask in DMEM 10% FBS, and approximately 10,000 cells/donor were collected, snap frozen, and stored at −80° C. until use.
Five 8-cell embryos for each group were directly lysed and used for cDNA synthesis using SMART-Seq v4 Ultra Low Input RNA Kit (Clontech). For MEF donor, 10 ng total RNA was used for cDNA synthesis using SMART-Seq v4 Ultra Low Input RNA Kit. After amplification, the cDNA samples were fragmented using Covaris sonicator M220 to an average size of 150 bp (Covaris). Sequencing libraries were made with the fragmented DNA using NEBNext Ultra DNA Library Prep Kit for Illumina according to manufacturer's instruction (New England Biolabs) with different barcodes. For each RNA-seq analysis of hESCs, 1 μg total RNA was used for mRNA purification. Barcoded RNA-seq libraries were generated using NEBNext Ultra Directional RNA Library Prep Kit for Illumina (New England Biolabs). Single end 50 bp sequencing was performed on a HiSeq 2500 sequencer (Illumina). Sequencing reads were mapped to the human genome (hg19) with Tophat2. All programs were performed with default settings (unless otherwise specified). At least 22 million uniquely mapped reads were obtained for each sequencing library, and subsequently assembled into transcripts guided by the reference annotation (Refseq gene models) with Cufflinks v2.0.2. Expression level of each gene was quantified with normalized FPKM (fragments per kilobase of exon per million mapped fragments). Statistical analyses were performed with R (available at: “www.r-project.org/”). Independent 2 group Wilcoxon rank sum tests were used to compare distributions using the wilcox.test function in R. Pearson's r coefficient was calculated using the cor function with default parameters. The hierarchical clustering analysis of the global gene expression pattern in different samples was carried out using heatmap.2 function (gplots package) in R.

## KDM4A mRNA: in vitro transcribed mRNA of full length human KDM4A/JHDM3A cDNA, an H3K9me3 demethylase (SEQ ID NO: 1)
  NOC4L Expression level (FPKM): 0.61 FPKM
  NOP58 Expression level (FPKM): 55.54 FPKM
  NUDT9 Expression level (FPKM): 1.35 FPKM
  PAGE5 Expression level (FPKM): 1.86 FPKM
  PDCD11 Expression level (FPKM): 1.88 FPKM
  PDE4DIP Expression level (FPKM): 4.04 FPKM
  PHOSPHO1 Expression level (FPKM): 0.23 FPKM
  PIK3R4 Expression level (FPKM): 1.31 FPKM
  PLBD1 Expression level (FPKM): 0.74 FPKM
  PLD2 Expression level (FPKM): 1 FPKM
  PLVAP Expression level (FPKM): 1.63 FPKM
  POLR3K Expression level (FPKM): 109.26 FPKM
  POTEM Expression level (FPKM): 1.96 FPKM
  PPM1N Expression level (FPKM): 0.89 FPKM
  PPP2CB Expression level (FPKM): 1.07 FPKM
  PRAMEF3 Expression level (FPKM): 1.48 FPKM
  PRAMEF4 Expression level (FPKM): 18.29 FPKM
  PRAMEF6 Expression level (FPKM): 14.29 FPKM
  PRAMEF10 Expression level (FPKM): 49.42 FPKM
  PRAMEF11 Expression level (FPKM): 18.18 FPKM
  PRAMEF17 Expression level (FPKM): 0.66 FPKM
  PRPF39 Expression level (FPKM): 3.48 FPKM
  PTPN22 Expression level (FPKM): 1.15 FPKM
  RAB9A Expression level (FPKM): 1.37 FPKM
  RASA2 Expression level (FPKM): 1 FPKM
  RFK Expression level (FPKM): 2.86 FPKM
  RNU11 Expression level (FPKM): 3.75 FPKM
  RP2 Expression level (FPKM): 1.31 FPKM
  RPF2 Expression level (FPKM): 102.42 FPKM
  RPS6KB2 Expression level (FPKM): 0.32 FPKM
  SAMD8 Expression level (FPKM): 4.34 FPKM
  SCO1 Expression level (FPKM): 1.99 FPKM
  SEPX1 Expression level (FPKM): 2.34 FPKM
  SERTAD1 Expression level (FPKM): 7.03 FPKM
  SFTPD Expression level (FPKM): 0.61 FPKM
  SGCG Expression level (FPKM): 1.03 FPKM
  SGPP1 Expression level (FPKM): 1.39 FPKM
  SHFM1 Expression level (FPKM): 21.11 FPKM
  SIAH1 Expression level (FPKM): 88.93 FPKM
  SNAPC1 Expression level (FPKM): 17.7 FPKM
  SNAR-C3 Expression level (FPKM): 98.14 FPKM
  SNAR-E Expression level (FPKM): 2468.68 FPKM
  SNHG9 Expression level (FPKM): 63.59 FPKM
  SNHG12 Expression level (FPKM): 7.02 FPKM
  SPINK7 Expression level (FPKM): 12.41 FPKM
  SRA1 Expression level (FPKM): 5.51 FPKM
  SSX3 Expression level (FPKM): 5.71 FPKM
  STAG3L2 Expression level (FPKM): 2.72 FPKM
  STAG3L4 Expression level (FPKM): 2.35 FPKM
  STAP2 Expression level (FPKM): 0.83 FPKM
  SUZ12P Expression level (FPKM): 1.31 FPKM
  TAC1 Expression level (FPKM): 5.72 FPKM
  TCEANC2 Expression level (FPKM): 2.9 FPKM
  TCN2 Expression level (FPKM): 0.69 FPKM
  TEN1 Expression level (FPKM): 3.43 FPKM
  THOC5 Expression level (FPKM): 5.02 FPKM
  TIMM10 Expression level (FPKM): 25.23 FPKM
  TMEM41B Expression level (FPKM): 19.19 FPKM
  TMEM92 Expression level (FPKM): 0.97 FPKM
  TMEM159 Expression level (FPKM): 8.54 FPKM
  TRIM39-RPP21 Expression level (FPKM): 1.26 FPKM
  TRIML2 Expression level (FPKM): 1.8 FPKM
  TSEN34 Expression level (FPKM): 1.75 FPKM
  TTC27 Expression level (FPKM): 0.56 FPKM
  TTC28-AS1 Expression level (FPKM): 7.79 FPKM
  UBTFL1 Expression level (FPKM): 120.09 FPKM
  UTP3 Expression level (FPKM): 2.98 FPKM
  UTP23 Expression level (FPKM): 3.29 FPKM
  UTS2 Expression level (FPKM): 1.14 FPKM
  VAMP1 Expression level (FPKM): 13.05 FPKM
  VCX2 Expression level (FPKM): 0.24 FPKM
  VCX Expression level (FPKM): 0.23 FPKM
  VPS54 Expression level (FPKM): 3.79 FPKM
  WDR77 Expression level (FPKM): 3.45 FPKM
  XAGE5 Expression level (FPKM): 0.11 FPKM
  ZCCHC10 Expression level (FPKM): 15.69 FPKM
  ZFYVE19 Expression level (FPKM): 4.05 FPKM
  ZNF92 Expression level (FPKM): 21.84 FPKM
  ZNF100 Expression level (FPKM): 3.76 FPKM
  ZNF174 Expression level (FPKM): 1.13 FPKM
  ZNF208 Expression level (FPKM): 1.74 FPKM
  ZNF254 Expression level (FPKM): 1.32 FPKM
  ZNF273 Expression level (FPKM): 4.43 FPKM
  ZNF280A Expression level (FPKM): 84.94 FPKM
  ZNF326 Expression level (FPKM): 2.8 FPKM
  ZNF345 Expression level (FPKM): 1.41 FPKM
  ZNF486 Expression level (FPKM): 2.77 FPKM
  ZNF487P Expression level (FPKM): 3.02 FPKM
  ZNF625-ZNF20 Expression level (FPKM): 1.95 FPKM
  ZNF625 Expression level (FPKM): 1 FPKM
  ZNF669 Expression level (FPKM): 8.14 FPKM
  ZNF675 Expression level (FPKM): 15.04 FPKM
  ZNF676 Expression level (FPKM): 4.61 FPKM
  ZNF679 Expression level (FPKM): 86.94 FPKM
  ZNF680 Expression level (FPKM): 5.58 FPKM
  ZNF684 Expression level (FPKM): 7.21 FPKM
  ZNF700 Expression level (FPKM): 1.86 FPKM
  ZNF724P Expression level (FPKM): 13.16 FPKM
  ZNF729 Expression level (FPKM): 0.94 FPKM
  ZNF735 Expression level (FPKM): 33.19 FPKM
  ZNF789 Expression level (FPKM): 5.2 FPKM
  ZNF791 Expression level (FPKM): 3.79 FPKM
  ZNF826P Expression level (FPKM): 2.07 FPKM
  ZNHIT6 Expression level (FPKM): 3.88 FPKM
